From patent US10604554B2, “Double-acylated GLP-1 derivatives” (Novo Nordisk A/S, priority 2012, dated 2020)
Read-outs that look alike come from different tables or passages of the source. Numbered stars: 1 amine (or outer) side, 2 acyl side, 3 side chain; on linkers, the order of the positions; unused ones are H or OH. Square brackets hold non-standard residues; d marks the D form. Side chains are listed from the residue outwards. Peptide text beside a SMILES is read from it. * marks the point of attachment. C18 diacid = O=C(O)CCCCCCCCCCCCCCCCC(=O)*; γGlu = O=C(O)[C@H](CCC(=O)[*:2])N[*:1]; εLys = N[C@@H](CCCCN[*:1])C(=O)[*:2]; AEEA = NCCOCCOCC(=O)O; Aib = CC(C)(N)C(=O)O

Molecular target: T1, human GLP-1 receptor (Homo sapiens, UniProt P43220)
T1 construct: expressed in transfected cells; host or cells: BHK cells, clone FCW467-12A/KZ10-1 (parent line BHKTS13), further transfected with CRE luciferase
T1 sequence (P43220 24-463): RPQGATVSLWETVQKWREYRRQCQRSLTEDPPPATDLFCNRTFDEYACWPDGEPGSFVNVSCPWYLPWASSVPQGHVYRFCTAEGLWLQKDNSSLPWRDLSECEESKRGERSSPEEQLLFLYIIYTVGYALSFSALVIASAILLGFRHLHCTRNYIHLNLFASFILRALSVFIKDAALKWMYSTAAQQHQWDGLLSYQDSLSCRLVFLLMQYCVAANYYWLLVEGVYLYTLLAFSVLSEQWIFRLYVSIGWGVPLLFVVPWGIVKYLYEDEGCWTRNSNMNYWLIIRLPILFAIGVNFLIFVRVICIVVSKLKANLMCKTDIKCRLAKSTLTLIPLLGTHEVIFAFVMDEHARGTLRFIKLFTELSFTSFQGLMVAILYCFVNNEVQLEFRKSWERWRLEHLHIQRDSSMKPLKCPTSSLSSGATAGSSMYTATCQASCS
Assay: In vitro potency (AlphaScreen cAMP, membranes)
Assay type: biochemical
Method: The purpose of this example is to test the activity, or potency, of the GLP-1 derivatives in vitro.
Purified plasma membranes from a stable transfected cell line, BHK467-12A (tk-ts13), expressing the human GLP-1 receptor were stimulated with the GLP-1 analogue or derivative in question, and the potency of cAMP production was measured using the AlphaScreen™ cAMP Assay Kit from Perkin Elmer Life Sciences. The basic principle of the AlphaScreen Assay is a competition between endogenous cAMP and exogenously added biotin-cAMP. The capture of cAMP is achieved by using a specific antibody conjugated to acceptor beads.
A stable transfected cell line and a high expressing clone were selected for screening. The cells were grown at 5% CO2 in DMEM, 5% FCS, 1% Pen/Strep (Penicillin/Streptomycin) and 0.5 mg/ml of the selection marker G418.
Cells at approximately 80% confluence were washed 2× with PBS and harvested with Versene (aqueous solution of the tetrasodium salt of ethylenediaminetetraacetic acid), centrifuged 5 min at 1000 rpm and the supernatant removed. The additional steps were all performed on ice. The cell pellet was homogenised by the Ultrathurax for 20-30 s in 10 ml of Buffer 1 (20 mM Na-HEPES, 10 mM EDTA, pH=7.4), centrifuged 15 min at 20,000 rpm and the pellet resuspended in 10 ml of Buffer 2 (20 mM Na-HEPES, 0.1 mM EDTA, pH=7.4). The suspension was homogenised for 20-30 s and centrifuged 15 min at 20,000 rpm. Suspension in Buffer 2, homogenisation and centrifugation was repeated once and the membranes were resuspended in Buffer 2. The protein concentration was determined and the membranes stored at −80° C. until use.
The assay was performed in flat-bottom 96-well plates (Costar cat. no:3693). The final volume per well was 50 μl.
AlphaScreen cAMP Assay Kit from Perkin Elmer Life Sciences (cat. No: 6760625M); containing Anti-cAMP Acceptor beads (10 U/μl), Streptavidin Donor beads (10 U/μl) and Biotinylated-cAMP (133 U/μl).
AlphaScreen Buffer, pH=7.4: 50 mM TRIS-HCl (Sigma, cat.no: T3253); 5 mM HEPES (Sigma, cat.no: H3375); 10 mM MgCl2, 6H2O (Merck, cat.no: 5833); 150 mM NaCl (Sigma, cat.no: S9625); 0.01% Tween (Merck, cat.no: 822184). The following was added to the AlphaScreen Buffer prior to use (final concentrations indicated): BSA (Sigma, cat. no. A7906): 0.1%; IBMX (Sigma, cat. no. 15879): 0.5 mM; ATP (Sigma, cat. no. A7699): 1 mM; GTP (Sigma, cat. no. G8877): 1 uM.
cAMP standard (dilution factor in assay=5): cAMP Solution: 5 μL of a 5 mM cAMP-stock+495 μL AlphaScreen Buffer.
Membranes were prepared from hGLP-1/BHK 467-12A cells with a concentration of 6 μg/well corresponding to 0.6 mg/ml (the amount of membranes used pr. well may vary)
“No membranes”: Acceptor Beads (15 μg/ml final) in AlphaScreen buffer
“6 μg/well membranes”: membranes+Acceptor Beads (15 μg/ml final) in AlphaScreen buffer
An aliquot (10 μl) of “No membranes” was added to the cAMP standard (per well in duplicate wells) and the positive and negative controls
An aliquot (10 μl) of “6 μg/well membranes” was added to GLP-1 and analogues (per well in duplicate or triplicate wells)
Pos. Control: 10 μl “no membranes”+10 μl AlphaScreen Buffer
Neg. Control: 10 μl “no membranes”+10 μl cAMP Stock Solution (50 μM)
As the beads are sensitive to direct light, any handling was in the dark (as dark as possible), or in green light. All dilutions were made on ice.
1. Make the AlphaScreen Buffer.
2. Dissolve and dilute the GLP-1/Analogues/cAMP standard in AlphaScreen Buffer.
3. Make the Donor Beads Solution by mixing streptavidin donor beads (2 units/well) and biotinylated cAMP (1.2 units/well) and incubate 20-30 min in the dark at room temperature
4. Add the cAMP/GLP-1/Analogues to the plate: 10 μl per well.
5. Prepare membrane/Acceptor Beads solution and add this to the plates: 10 μl per well.
6. Add the Donor Beads: 30 μl per well.
7. Wrap the plate in aluminum foil and incubate on the shaker for 3 hours (very slowly) at RT.

[1] = cAMP formation in membranes from BHK467-12A cells expressing human GLP-1 receptor, read-out: In vitro potency (AlphaScreen) EC50

Work on `CC[C@H](C)[C@H](NC(=O)[C@H](Cc1ccccc1)NC(=O)[C@H](CCC(=O)O)NC(=O)[C@H](CCCCNC(=O)[C@@H](N)CCCCNC(=O)COCCOCCNC(=O)COCCOCCNC(=O)CC[C@H](NC(=O)CCCCCCCCCCCCCCCCC(=O)O)C(=O)O)NC(=O)[C@H](C)NC(=O)[C@H](C)NC(=O)[C@H](CCC(N)=O)NC(=O)[C@H](CCC(=O)O)NC(=O)[C@H](CCC(=O)O)NC(=O)[C@H](CC(C)C)NC(=O)[C@H](Cc1ccc(O)cc1)NC(=O)[C@H](CO)NC(=O)[C@H](CO)NC(=O)[C@@H](NC(=O)[C@H](CC(=O)O)NC(=O)[C@H](CO)NC(=O)[C@@H](NC(=O)[C@H](Cc1ccccc1)NC(=O)[C@@H](NC(=O)CNC(=O)[C@H](CCC(=O)O)NC(=O)C(C)(C)NC(=O)[C@@H](N)Cc1c[nH]cn1)[C@@H](C)O)[C@@H](C)O)C(C)C)C(=O)N[C@@H](C)C(=O)N[C@@H](Cc1c[nH]c2ccccc12)C(=O)N[C@@H](CC(C)C)C(=O)N[C@H](C(=O)N[C@@H](CCC(N)=O)C(=O)NCC(=O)N[C@@H](CCCNC(=N)N)C(=O)N[C@@H](CCCCNC(=O)[C@@H](N)CCCCNC(=O)COCCOCCNC(=O)COCCOCCNC(=O)CC[C@H](NC(=O)CCCCCCCCCCCCCCCCC(=O)O)C(=O)O)C(=O)O)C(C)C` [Example 28, N^ε26-[(2S)-2-amino-6-[[2-[2-[2-[[2-[2-[2-[[(4S)-4-carboxy-4-(17-carboxyheptadecanoylamino)butanoyl]amino]ethoxy]ethoxy]acetyl]amino]ethoxy]ethoxy]acetyl]amino]hexanoyl], N^ε37-[(2S)-2-amino-6-[[2-[2-[2-[[2-[2-[2-[[(4S)-4-carboxy-4-(17-carboxyheptadecanoylamino)butanoyl]amino]ethoxy]ethoxy]acetyl]amino]ethoxy]ethoxy]acetyl]amino]hexanoyl]-[Aib^8,Glu^22,Gln^34, Lys^37]-GLP-1-(7-37)-peptide] (H-H[Aib]EGTFTSDVSSYLEEQAAK([εLys-AEEA-AEEA-γGlu-C18 diacid])EFIAWLVQGRK([εLys-AEEA-AEEA-γGlu-C18 diacid])-OH; N-terminus and C-terminus assumed) yielded an EC50 [1] of 7.25 nM.

For `CC[C@H](C)[C@H](NC(=O)[C@H](Cc1ccccc1)NC(=O)[C@H](CCC(=O)O)NC(=O)[C@H](CCCCNC(=O)[C@@H](N)CCCCNC(=O)[C@@H](N)CCCCNC(=O)CC[C@H](NC(=O)CC[C@H](NC(=O)CCCCCCCCCCCCCCC(=O)O)C(=O)O)C(=O)O)NC(=O)[C@H](C)NC(=O)[C@H](C)NC(=O)[C@H](CCC(N)=O)NC(=O)CNC(=O)[C@H](CCC(=O)O)NC(=O)[C@H](CC(C)C)NC(=O)[C@H](Cc1ccc(O)cc1)NC(=O)[C@H](CO)NC(=O)[C@H](CO)NC(=O)[C@@H](NC(=O)[C@H](CC(=O)O)NC(=O)[C@H](CO)NC(=O)[C@@H](NC(=O)[C@H](Cc1ccccc1)NC(=O)[C@@H](NC(=O)CNC(=O)[C@H](CCC(=O)O)NC(=O)C(C)(C)NC(=O)[C@@H](N)Cc1c[nH]cn1)[C@@H](C)O)[C@@H](C)O)C(C)C)C(=O)N[C@@H](C)C(=O)N[C@@H](Cc1c[nH]c2ccccc12)C(=O)N[C@@H](CC(C)C)C(=O)N[C@H](C(=O)N[C@@H](CCCNC(=N)N)C(=O)NCC(=O)N[C@@H](CCCNC(=N)N)C(=O)N[C@@H](CCCCNC(=O)[C@@H](N)CCCCNC(=O)[C@@H](N)CCCCNC(=O)CC[C@H](NC(=O)CC[C@H](NC(=O)CCCCCCCCCCCCCCC(=O)O)C(=O)O)C(=O)O)C(=O)O)C(C)C` [Example 12, N^ε26-[(2S)-2-amino-6-[[(2S)-2-amino-6-[[(4S)-4-carboxy-4-[[(4S)-4-carboxy-4-(15-carboxypentadecanoylamino)butanoyl]amino]butanoyl]amino]hexanoyl]amino]hexanoyl], N^ε37-[(2S)-2-amino-6-[[(2S)-2-amino-6-[[(4S)-4-carboxy-4-[[(4S)-4-carboxy-4-(15-carboxypentadecanoylamino)butanoyl]amino]butanoyl]amino]hexanoyl]amino]hexanoyl]-[Aib^8,Arg^34, Lys^37]-GLP-1-(7-37)-peptide], the EC50 [1] was 0.227 nM.

In the case of `CC[C@H](C)[C@H](NC(=O)[C@H](Cc1ccccc1)NC(=O)[C@H](CCC(=O)O)NC(=O)[C@H](CCCCNC(=O)[C@@H](N)CCCCNC(=O)CC[C@H](NC(=O)CC[C@H](NC(=O)CC[C@H](NC(=O)CCCCCCCCCCCOc1ccc(C(=O)O)cc1)C(=O)O)C(=O)O)C(=O)O)NC(=O)[C@H](C)NC(=O)[C@H](C)NC(=O)[C@H](CCC(N)=O)NC(=O)CNC(=O)[C@H](CCC(=O)O)NC(=O)[C@H](CC(C)C)NC(=O)[C@H](Cc1ccc(O)cc1)NC(=O)[C@H](CO)NC(=O)[C@H](CO)NC(=O)[C@@H](NC(=O)[C@H](CC(=O)O)NC(=O)[C@H](CO)NC(=O)[C@@H](NC(=O)[C@H](Cc1ccccc1)NC(=O)[C@@H](NC(=O)CNC(=O)[C@H](CCC(=O)O)NC(=O)C(C)(C)NC(=O)[C@@H](N)Cc1c[nH]cn1)[C@@H](C)O)[C@@H](C)O)C(C)C)C(=O)N[C@@H](C)C(=O)N[C@@H](Cc1c[nH]c2ccccc12)C(=O)N[C@@H](CC(C)C)C(=O)N[C@H](C(=O)N[C@@H](CCCNC(=N)N)C(=O)NCC(=O)N[C@@H](CCCNC(=N)N)C(=O)N[C@@H](CCCCNC(=O)[C@@H](N)CCCCNC(=O)CC[C@H](NC(=O)CC[C@H](NC(=O)CC[C@H](NC(=O)CCCCCCCCCCCOc1ccc(C(=O)O)cc1)C(=O)O)C(=O)O)C(=O)O)C(=O)O)C(C)C` [Example 17, N^ε26-[(2S)-2-amino-6-[[(4S)-4-carboxy-4-[[(4S)-4-carboxy-4-[[(4S)-4-carboxy-4-[12-(4-carboxyphenoxy)dodecanoylamino]butanoyl]amino]butanoyl]amino]butanoyl]amino]hexanoyl], N^ε37-[(2S)-2-amino-6-[[(4S)-4-carboxy-4-[[(4S)-4-carboxy-4-[[(4S)-4-carboxy-4-[12-(4-carboxyphenoxy)dodecanoylamino]butanoyl]amino]butanoyl]amino]butanoyl]amino]hexanoyl]-[Aib^8,Arg^34,Lys^37]-GLP-1-(7-37)-peptide], the EC50 is reported as 0.286 nM.
